Measurements published in ChEMBL document CHEMBL1144310, “Identification of agonists and antagonists of the human melanocortin-4 receptor from piperazinebenzylamines” (Bioorg Med Chem Lett, 2005).

How the values were obtained:
Melanocortin receptor 4 [1] = biological target: T1, Melanocortin receptor 4 (Homo sapiens, UniProt P32245); assay: Binding affinity towards human melanocortin 4 receptor expressed in HEK 293 cells using [125I]NDP-MSH; type: cell-based, HEK293
HEK293 [2] = assay: Agonist activity in stimulation of cAMP accumulation in HEK 293 cells; conditions: Homo sapiens
Melanocortin receptor 3 = Melanocortin receptor 3 (Homo sapiens, UniProt P41968); assay: Binding affinity for human melanocortin 3 receptor
Chain of Melanocortin receptor 3 (P41968 whole entry): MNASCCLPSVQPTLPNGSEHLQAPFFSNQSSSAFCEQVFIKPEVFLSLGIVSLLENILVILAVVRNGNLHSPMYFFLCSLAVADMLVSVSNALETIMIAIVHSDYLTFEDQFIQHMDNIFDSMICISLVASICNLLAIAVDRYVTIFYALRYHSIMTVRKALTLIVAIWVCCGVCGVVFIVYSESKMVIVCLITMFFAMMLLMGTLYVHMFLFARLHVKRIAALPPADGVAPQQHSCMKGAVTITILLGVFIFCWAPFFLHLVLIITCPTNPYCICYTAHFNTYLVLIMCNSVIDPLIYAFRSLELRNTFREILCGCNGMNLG

HEK293 [3] = assay: Inhibition of alpha-MSH-stimulated cAMP production at 10 uM in HEK cell line; type: functional; conditions: Homo sapiens
Melanocortin receptor 4 [4] = biological target: T1, Melanocortin receptor 4; assay: Inhibitory concentration against Melanocortin 4 receptor
Melanocortin receptor 5 = Melanocortin receptor 5 (Homo sapiens, UniProt P33032); assay: Binding affinity for human melanocortin 5 receptor
Chain of Melanocortin receptor 5 (P33032 whole entry): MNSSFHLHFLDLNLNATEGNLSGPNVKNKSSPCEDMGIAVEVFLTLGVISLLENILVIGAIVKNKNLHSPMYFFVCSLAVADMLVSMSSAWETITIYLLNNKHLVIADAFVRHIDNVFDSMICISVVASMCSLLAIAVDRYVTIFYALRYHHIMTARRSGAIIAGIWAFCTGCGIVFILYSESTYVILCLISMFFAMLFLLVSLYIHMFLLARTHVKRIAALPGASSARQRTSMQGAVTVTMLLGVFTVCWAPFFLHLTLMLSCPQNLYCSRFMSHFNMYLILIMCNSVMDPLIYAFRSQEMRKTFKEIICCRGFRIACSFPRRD

T1 sequence (P32245 whole entry): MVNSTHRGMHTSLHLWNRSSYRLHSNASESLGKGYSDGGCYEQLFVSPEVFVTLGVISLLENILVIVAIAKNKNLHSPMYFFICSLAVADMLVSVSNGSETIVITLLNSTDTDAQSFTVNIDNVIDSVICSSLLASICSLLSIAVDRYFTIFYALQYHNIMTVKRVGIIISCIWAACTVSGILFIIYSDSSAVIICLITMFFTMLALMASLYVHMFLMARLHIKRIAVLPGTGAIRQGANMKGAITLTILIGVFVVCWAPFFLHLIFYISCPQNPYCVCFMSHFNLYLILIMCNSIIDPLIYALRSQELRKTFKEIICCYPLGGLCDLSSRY

Compound	Ki (Melanocortin receptor 4 [1]) [µM]	EC50 (HEK293 [2]) [µM]	also measured
O=C(N[C@H](Cc1ccc(Cl)cc1)C(=O)N1CCN(c2ccccc2CNCCN2CCOCC2)CC1)[C@H]1Cc2ccccc2CN1	0.12	0.57	–
O=C(N[C@H](Cc1ccc(Cl)cc1)C(=O)N1CCN(c2ccccc2CNCCCn2ccnc2)CC1)[C@H]1Cc2ccccc2CN1	0.37	0.64	–
CC(NC1CCCNC1)c1ccccc1N1CCN(C(=O)[C@@H](Cc2ccc(Cl)cc2)NC(=O)C(N)Cc2ccccn2)CC1 (some centres undefined)	0.056	0.22	–
CCOC(=O)CN(C)Cc1ccccc1N1CCN(C(=O)[C@@H](Cc2ccc(Cl)cc2)NC(=O)[C@H]2Cc3ccccc3CN2)CC1	0.14	0.21	–
CC(NC1CCCNC1)c1ccccc1N1CCN(C(=O)[C@@H](Cc2ccc(Cl)cc2)NC(=O)C(N)C2CCc3ccccc32)CC1 (some centres undefined)	0.12	0.63	–
N[C@H]1CCCC[C@@H]1NCc1ccccc1N1CCN(C(=O)[C@@H](Cc2ccc(Cl)cc2)NC(=O)[C@H]2Cc3ccccc3CN2)CC1	0.089	0.39	–
CN1CCN(Cc2ccccc2N2CCN(C(=O)[C@@H](Cc3ccc(Cl)cc3)NC(=O)[C@H]3Cc4ccccc4CN3)CC2)CC1	0.24	0.72	–
O=C(N[C@H](Cc1ccc(Cl)cc1)C(=O)N1CCN(c2ccccc2CN2CCCNCC2)CC1)[C@H]1Cc2ccccc2CN1	0.078	0.21	–
CN(C)CCC(=O)N[C@H](Cc1ccc(Cl)cc1)C(=O)N1CCC(Cn2cncn2)(C2CCCCC2)CC1	–	0.04	–
O=C(N[C@H](Cc1ccc(Cl)cc1)C(=O)N1CCN(c2ccccc2CNCCCN2CCCC2=O)CC1)[C@H]1Cc2ccccc2CN1	0.27	0.36	–
CC(NC1CCCNC1)c1ccccc1N1CCN(C(=O)[C@@H](Cc2ccc(Cl)cc2)NC(=O)[C@H]2Cc3ccccc3CN2)CC1 (some centres undefined)	–	0.0047	–
CC(NCCN1CCOCC1)c1ccccc1N1CCN(C(=O)[C@@H](Cc2ccc(Cl)cc2)NC(=O)[C@H]2Cc3ccccc3CN2)CC1 (some centres undefined)	0.087	0.23	–
O=C(N[C@H](Cc1ccc(Cl)cc1)C(=O)N1CCN(c2ccccc2CNCCc2cccs2)CC1)[C@H]1Cc2ccccc2CN1	–	0.36	–
CC(C)COCCCNCc1ccccc1N1CCN(C(=O)[C@@H](Cc2ccc(Cl)cc2)NC(=O)[C@H]2Cc3ccccc3CN2)CC1	0.11	0.52	–
O=C(N[C@H](Cc1ccc(Cl)cc1)C(=O)N1CCN(c2ccccc2CNCCCN2CCCCCC2)CC1)[C@H]1Cc2ccccc2CN1	0.16	0.57	–

More lines, in order of falling Ki (Melanocortin receptor 4 [1]), values ahead:

Ki (Melanocortin receptor 4 [1]) [µM]	Compound	EC50 (HEK293 [2]) [µM]	also measured
0.053	O=C(N[C@H](Cc1ccc(Cl)cc1)C(=O)N1CCN(c2ccccc2CN2CCOCC2)CC1)[C@H]1Cc2ccccc2CN1	0.36	–
0.052	CC(NC1CCCNC1)c1ccccc1N1CCN(C(=O)[C@@H](Cc2ccc(Cl)cc2)NC(=O)C(N)Cc2ccccc2)CC1 (some centres undefined)	0.4	–
0.049	CC(NC1CCCNC1)c1ccccc1N1CCN(C(=O)[C@@H](Cc2ccc(Cl)cc2)NC(=O)C(N)Cc2cccnc2)CC1 (some centres undefined)	–	–
0.047	CC(NC1CCCNC1)c1ccccc1N1CCN(C(=O)[C@@H](Cc2ccc(Cl)cc2)NC(=O)C2(N)CCc3ccccc32)CC1 (some centres undefined)	–	–
0.041	CC(C)COCCCNC(C)c1ccccc1N1CCN(C(=O)[C@@H](Cc2ccc(Cl)cc2)NC(=O)[C@H]2Cc3ccccc3CN2)CC1 (some centres undefined)	0.56	–
0.036	O=C(N[C@H](Cc1ccc(Cl)cc1)C(=O)N1CCN(c2ccccc2CNc2ccncc2)CC1)[C@H]1Cc2ccccc2CN1	0.35	–
0.034	CC(NC1CCCNC1)c1ccccc1N1CCN(C(=O)[C@@H](Cc2ccc(Cl)cc2)NC(=O)C(N)c2ccccc2)CC1 (some centres undefined)	–	–
0.033	CC(NC1CCCNC1)c1ccccc1N1CCN(C(=O)[C@@H](Cc2ccc(Cl)cc2)NC(=O)CCc2ccccc2)CC1 (some centres undefined)	–	–
0.03	CC(NC1CCCNC1)c1ccccc1N1CCN(C(=O)[C@@H](Cc2ccc(Cl)cc2)NC(=O)Cc2ccccc2)CC1 (some centres undefined)	–	–
0.024	CC(NC1CCCNC1)c1ccccc1N1CCN(C(=O)[C@@H](Cc2ccc(Cl)cc2)NC(=O)C2(N)Cc3ccccc3C2)CC1 (some centres undefined)	0.44	–
0.022	CN(C)CCN(Cc1ccccc1)Cc1ccccc1N1CCN(C(=O)[C@@H](Cc2ccc(Cl)cc2)NC(=O)[C@H]2Cc3ccccc3CN2)CC1	0.55	–
0.01	CC(NC1CCCNC1)c1ccccc1N1CCN(C(=O)[C@@H](Cc2ccc(Cl)cc2)NC(=O)C2(N)CCc3ccccc3C2)CC1 (some centres undefined)	0.33	–
0.0063	CC(NC1CCCNC1)c1ccccc1N1CCN(C(=O)[C@@H](Cc2ccc(Cl)cc2)NC(=O)CC2NCCc3ccccc32)CC1 (some centres undefined)	0.031	Ki (Melanocortin receptor 3): 1.9 µM
0.0048	CC(NC1CCCNC1)c1ccccc1N1CCN(C(=O)[C@@H](Cc2ccc(Cl)cc2)NC(=O)c2cnc3ccccc3c2)CC1 (some centres undefined)	–	inhibition at 10 µM (HEK293 [3]): 38%; IC50 (Melanocortin receptor 4 [4]): 0.3 µM; Ki (Melanocortin receptor 3): 0.63 µM; Ki (Melanocortin receptor 5): 0.6 µM
